SMILES strings stand for the structures.

We go through 23 compounds from patent publication US8173654B2, “Triazolopyridazine compounds” (Janssen Pharmaceutica N.V., priority 2005, dated 2012).

Experiment [1] has as its target T1, c-Met (Homo sapiens, UniProt P08581). Nature of the experiment: Cell based ELISA assay for HGF stimulated c-Met phosphorylation in S114 cells. Set-up: expressed in transfected cells; host or cells: S114 (murine NIH 3T3 derived). The conditions noted are these: read-out: c-Met Cell ELISA IC-50. On the procedure: A cell based ELISA assay was developed to evaluate the ability of compounds to inhibit HGF stimulated c-Met phosphorylation in cells.
S114 cells were seeded to a 96 well tissue culture treated dish at a concentration of 5×10^4 per well. After a 16-20 hour incubation, culture medium was removed and replaced with serum free medium supplemented with 0.5% BSA. Test compound was then added and incubated with the cells for 60 minutes, followed by the addition of 1 μl HGF at […] for 15 minutes. […] Following another 1 hour incubation at room temperature the plates were washed three times with Delfia wash buffer (Perkin Elmer). After the final wash, […] of Delfia enhancer solution (Perkin Elmer) was added and allowed to incubate for 60 minutes. Plates were read on an LJL Analyst instrument (Molecular Devices; Sunnyvale, Calif.) with filter settings of 360 excitation, 620 emission, and 410 dichroic. IC50 values were calculated using Graphpad Prism software (Graphpad Software; San Diego, Calif.).
Background: An ELISA detects its analyte on a solid surface through an enzyme-linked reagent.
Target sequence in this assay (P08581 25-1390): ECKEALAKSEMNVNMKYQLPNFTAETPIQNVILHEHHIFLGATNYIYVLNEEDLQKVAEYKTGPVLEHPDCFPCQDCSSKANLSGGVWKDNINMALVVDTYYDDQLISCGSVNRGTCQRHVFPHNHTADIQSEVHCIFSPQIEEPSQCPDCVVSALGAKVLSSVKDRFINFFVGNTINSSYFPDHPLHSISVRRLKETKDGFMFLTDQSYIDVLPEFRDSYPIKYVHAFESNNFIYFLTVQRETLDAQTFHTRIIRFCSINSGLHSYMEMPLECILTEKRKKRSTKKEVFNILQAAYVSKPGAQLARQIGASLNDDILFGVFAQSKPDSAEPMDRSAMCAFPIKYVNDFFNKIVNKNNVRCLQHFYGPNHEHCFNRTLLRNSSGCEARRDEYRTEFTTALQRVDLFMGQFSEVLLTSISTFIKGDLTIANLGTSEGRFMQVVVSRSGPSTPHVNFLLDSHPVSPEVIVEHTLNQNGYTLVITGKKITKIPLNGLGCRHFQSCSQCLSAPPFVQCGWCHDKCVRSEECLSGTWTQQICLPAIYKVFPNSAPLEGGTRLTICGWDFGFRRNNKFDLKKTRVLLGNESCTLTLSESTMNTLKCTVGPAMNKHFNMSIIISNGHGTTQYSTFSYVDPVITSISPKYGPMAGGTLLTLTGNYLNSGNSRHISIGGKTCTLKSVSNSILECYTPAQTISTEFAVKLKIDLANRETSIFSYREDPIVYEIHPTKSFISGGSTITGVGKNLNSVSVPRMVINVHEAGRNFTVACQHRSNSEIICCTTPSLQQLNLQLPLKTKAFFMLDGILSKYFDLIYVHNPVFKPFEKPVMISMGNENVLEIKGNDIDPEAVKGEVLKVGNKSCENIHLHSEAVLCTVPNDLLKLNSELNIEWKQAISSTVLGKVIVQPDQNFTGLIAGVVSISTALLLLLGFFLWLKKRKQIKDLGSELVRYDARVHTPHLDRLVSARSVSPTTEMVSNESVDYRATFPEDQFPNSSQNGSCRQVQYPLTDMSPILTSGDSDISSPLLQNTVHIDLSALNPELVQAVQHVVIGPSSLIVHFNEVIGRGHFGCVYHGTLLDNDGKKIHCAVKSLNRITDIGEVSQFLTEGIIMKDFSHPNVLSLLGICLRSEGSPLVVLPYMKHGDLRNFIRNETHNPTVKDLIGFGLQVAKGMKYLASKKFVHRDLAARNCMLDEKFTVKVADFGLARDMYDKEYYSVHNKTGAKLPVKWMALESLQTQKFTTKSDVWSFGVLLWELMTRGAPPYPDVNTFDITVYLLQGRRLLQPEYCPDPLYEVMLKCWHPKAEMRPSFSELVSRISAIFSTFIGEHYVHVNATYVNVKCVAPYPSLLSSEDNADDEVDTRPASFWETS

For experiment [2], the target named is T1, c-Met. Nature of the experiment: Delfia autophosphorylation kinase assay on the c-Met. In kind it is biochemical. Set-up: The purified His6 tagged cytoplasmic domain of c-Met was diluted to a concentration of 500 ng/ml; host or cells: Sf9 insect cells (baculovirus, pFastBacHTa). The settings on record: His6 tagged cytoplasmic domain of c-Met, 1 μM ATP; read-out: cMet Delfia autophos IC-50. The method, then: A DELFIA time resolved fluorescence assay was developed for screening of compounds that decreases the autophosphorylation thus the kinase activity of c-Met. The DELFIA assay is non-radioactive. The autophosphorylation of the c-Met is measured by an anti-phosphotyrosine antibody coupled to an Europium tag.
A major advantage of this format is that it allowed for the development of an autophosphorylation assay using Ni-chelate plates which bind the hexa-his tag on the recombinant Met kinase. The autophosphorylation assay allows one to use a known substrate, Met kinase itself, for the phosphorylation.
The assay procedure for screening is as follows. The purified His6 tagged cytoplasmic domain of c-Met was diluted to a concentration of 500 ng/ml in enzyme dilution buffer (50 mM Tris-HCl, pH8.0, 0.1% BSA) and dispensed to assay plates at a volume of 50 μl per well. Black opaque HisGrab Nickel coated 96 well plates (Pierce, Rockford, Ill.) were selected for use. Next, 2.5 μl of compound in 40% DMSO was added to test wells, 2.5 μl of 40% DMSO only was added to the negative control wells. The autophosphorylation reaction was initiated upon the addition of 50 μl of reaction buffer, 50 mM Tris-HCl, pH 8.0, 10 mM MgCl2, 0.1 mM Na3VO4, 1 mM DTT, 1 μM ATP. Plates were incubated at room temperature for 1 hour followed by 2 washes with 200 μl/well of PBS. Europium conjugated anti-phosphotyrosine antibody, Eu-PY20 from Perkin Elmer was diluted to 50 ng/ml in Delfia AB buffer (Perkin Elmer, Boston, Mass.), added to the 96 well assay plates at a volume of 100 μl/well, and incubated at room temperature for 2 hours. Assay plates were then washed 4 times each with 200 μl/well of Delfia wash buffer (Perkin Elmer). After the final wash 150 μl of Delfia Enhancement solution (Perkin Elmer) was added to each well of the assay plate and incubated at room temperature for 1 hour. Plates were read on an LJL Analyst instrument (Molecular Devices; Sunnyvale, Calif.) with filter settings of 360 excitation, 620 emission, and 410 dichroic. IC50 values were calculated using Graphpad Prism software (Graphpad Software; San Diego, Calif.).
Target sequence in this assay (P08581 956-1390 limits assumed): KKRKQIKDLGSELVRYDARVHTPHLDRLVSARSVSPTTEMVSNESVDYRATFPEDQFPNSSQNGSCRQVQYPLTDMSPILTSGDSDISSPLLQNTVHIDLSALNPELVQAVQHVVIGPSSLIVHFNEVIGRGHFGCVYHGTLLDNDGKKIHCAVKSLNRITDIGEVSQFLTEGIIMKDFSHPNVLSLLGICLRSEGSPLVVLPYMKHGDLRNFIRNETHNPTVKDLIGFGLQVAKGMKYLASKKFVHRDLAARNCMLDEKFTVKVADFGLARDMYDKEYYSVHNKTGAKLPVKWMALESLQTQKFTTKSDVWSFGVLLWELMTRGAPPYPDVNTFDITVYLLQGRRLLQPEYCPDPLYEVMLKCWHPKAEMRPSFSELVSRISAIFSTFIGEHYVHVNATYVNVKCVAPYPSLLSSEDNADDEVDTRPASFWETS

For `c1csc(-c2ccc3nnc(Cc4ccc5occc5c4)n3n2)c1` [Example 35, 3-Benzofuran-5-ylmethyl-6-thiophen-2-yl-[1,2,4]triazolo[4,3-b]pyridazine], the IC50 in experiment [1] is 75 nM; in experiment [2], 9 nM.

For `c1csc(-c2ccc3nnc(Cc4ccc5c(c4)OCO5)n3n2)c1` [Example 37, 3-Benzo[1,3]dioxol-5-ylmethyl-6-thiophen-2-yl-[1,2,4]triazolo[4,3-b]pyridazine], the IC50 in experiment [1] was 346 nM; in experiment [2] it was 16 nM.

As for `Nc1nc2ccc(Cc3nnc4ccc(-c5cccs5)nn34)cc2s1` [Example 38, 6-(6-Thiophen-2-yl-[1,2,4]triazolo[4,3-b]pyridazin-3-ylmethyl)-benzothiazol-2-ylamine], the IC50 in experiment [1] was found to be 2 nM; in experiment [2], 0.45 nM.

Regarding `c1csc(-c2ccc3nnc(Cc4ccc5ncccc5c4)n3n2)c1` [Example 39, 6-(6-Thiophen-2-yl-[1,2,4]triazolo[4,3-b]pyridazin-3-ylmethyl)-quinoline], the values for the IC50 in experiment [1] and in experiment [2] were 1 nM and 2 nM, respectively.

For `c1cc2c(cc1Cc1nnc3ccc(-c4ccc(CN5CCOCC5)s4)nn13)CCO2` [Example 42, 3-(2,3-Dihydro-benzofuran-5-ylmethyl)-6-(5-morpholin-4-ylmethyl-thiophen-2-yl)-[1,2,4]triazolo[4,3-b]pyridazine], the results for the IC50 in experiment [1] and in experiment [2] were 406 nM and 13 nM, respectively.

Turning to `c1cnc2ccc(Cc3nnc4ccc(-n5ccnc5)nn34)cc2c1` [Example 43, 6-(6-Imidazol-1-yl-[1,2,4]triazolo[4,3-b]pyridazin-3-ylmethyl)-quinoline], the IC50 in experiment [1] amounted to 140 nM; in experiment [2], 11 nM.

For the compound `Brc1cn(-c2ccc3nnc(Cc4ccc5ncccc5c4)n3n2)cn1` [Example 44, 6-[6-(4-Bromo-imidazol-1-yl)-[1,2,4]triazolo[4,3-b]pyridazin-3-ylmethyl]-quinoline], the values for the IC50 in experiment [1] and in experiment [2] were 143 nM and 2 nM, respectively.

Take `CN1CCN(C(=O)c2ccc(-c3ccc4nnc(Cc5ccc6ncccc6c5)n4n3)s2)CC1` [Example 47, (4-Methyl-piperazin-1-yl)-[5-(3-quinolin-6-ylmethyl-[1,2,4]triazolo[4,3-b]pyridazin-6-yl)-thiophen-yl]-methanone]: the IC50 is 1 nM in experiment [1] and 0.4 nM in experiment [2].

As for `CCOC(=O)c1ccc(-c2ccc3nnc(Cc4ccc(O)cc4)n3n2)s1` [Example 48, 5-[3-(4-Hydroxy-benzyl)-[1,2,4]triazolo[4,3-b]pyridazin-6-yl]-thiophene-2-carboxylic acid ethyl ester], the results for the IC50 in experiment [1] and in experiment [2] were 14 nM and 2 nM, respectively.

`CN(C)CCCNC(=O)c1ccc(-c2ccc3nnc(Cc4ccc(O)cc4)n3n2)s1` [Example 49, 5-[3-(4-Hydroxy-benzyl)-[1,2,4]triazolo[4,3-b]pyridazin-6-yl]-thiophene-2-carboxylic acid (3-dimethylamino-propyl)-amide]: the IC50 in experiment [1] was determined as 343 nM; in experiment [2], 2.1 nM.

For the compound `CN1CCN(C(=O)c2ccc(-c3ccc4nnc(Cc5ccc6c(c5)CCO6)n4n3)s2)CC1` [Example 50, {5-[3-(2,3-Dihydro-benzofuran-5-ylmethyl)-[1,2,4]triazolo[4,3-b]pyridazin-6-yl]-thiophen-2-yl}-(4-methyl-piperazin-1-yl)-methanone], the IC50 in experiment [1] stood at 12 nM; in experiment [2], 2 nM.

On to `COCCN(CCOC)C(=O)c1ccc(-c2ccc3nnc(Cc4ccc5c(c4)CCO5)n3n2)s1` [Example 51, 5-[3-(2,3-Dihydro-benzofuran-5-ylmethyl)-[1,2,4]triazolo[4,3-b]pyridazin-6-yl]-thiophene-2-carboxylic acid bis-(2-methoxy-ethyl)-amide], for which the IC50 was found to be 8 nM in experiment [1] and 0.2 nM in experiment [2].

For `O=C(NCCN1CCOCC1)c1ccc(-c2ccc3nnc(Cc4ccc5c(c4)CCO5)n3n2)s1` [Example 52, 5-[3-(2,3-Dihydro-benzofuran-5-ylmethyl)-[1,2,4]triazolo[4,3-b]pyridazin-6-yl]-thiophene-2-carboxylic acid (2-morpholin-4-yl-ethyl)-amide], the IC50 in experiment [1] came to 40 nM; in experiment [2], 3 nM.

`CC(C)CCNC(=O)c1ccc(-c2ccc3nnc(Cc4ccc5c(c4)CCO5)n3n2)s1` [Example 53, 5-[3-(2,3-Dihydro-benzofuran-5-ylmethyl)-[1,2,4]triazolo[4,3-b]pyridazin-6-yl]-thiophene-2-carboxylic acid (3-methyl-butyl)-amide]: the IC50 in experiment [1] was found to be 35 nM; in experiment [2] it was 4 nM.

Take `CC(C)N1CCN(C(=O)c2ccc(-c3ccc4nnc(Cc5ccc6ncccc6c5)n4n3)s2)CC1` [Example 55, (4-Isopropyl-piperazin-1-yl)-[5-(3-quinolin-6-ylmethyl-[1,2,4]triazolo[4,3-b]pyridazin-6-yl)-thiophen-2-yl]-methanone]: the IC50 in experiment [1] and in experiment [2] was 1 nM each time.

Consider `CS(=O)(=O)N1CCN(C(=O)c2ccc(-c3ccc4nnc(Cc5ccc6ncccc6c5)n4n3)s2)CC1` [Example 56, (4-Methanesulfonyl-piperazin-1-yl)-[5-(3-quinolin-6-ylmethyl-[1,2,4]triazolo[4,3-b]pyridazin-6-yl)-thiophen-2-yl]-methanone], for which the IC50 in experiment [1] is 23 nM; in experiment [2] it was 0.9 nM.

As to `COc1ccc(C(F)(F)c2nnc3ccc(-c4cccs4)nn23)cc1` [Example 58, 3-[Difluoro-(4-methoxy-phenyl)-methyl]-6-thiophen-2-yl-[1,2,4]triazolo[4,3-b]pyridazine], the IC50 in experiment [1] turned out to be 314 nM; in experiment [2] it was 95 nM.

As to `FC(F)(c1ccc2ncccc2c1)c1nnc2ccc(-c3cccnc3)nn12` [Example 59, 6-[Difluoro-(6-pyridin-3-yl-[1,2,4]triazolo[4,3-b]pyridazin-3-yl)-methyl]-quinoline], the figures for the IC50 in experiment [1] and in experiment [2] were 8 nM and 3 nM, respectively.

For `Cn1cc(-c2ccc3nnc(Cc4ccc5c(c4)CCO5)n3n2)cn1` [Example 62, 3-(2,3-Dihydro-benzofuran-5-ylmethyl)-6-(1-methyl-1H-pyrazol-4-yl)-[1,2,4]triazolo[4,3-b]pyridazine], the IC50 came out at 270 nM in experiment [1] and 20 nM in experiment [2].

For `c1cnc2ccc(Cc3nnc4ccc(-c5cncnc5)nn34)cc2c1` [Example 64, 6-(6-Pyrimidin-5-yl-[1,2,4]triazolo[4,3-b]pyridazin-3-ylmethyl)-quinoline], the results for the IC50 in experiment [1] and in experiment [2] were 170 nM and 17 nM, respectively.

`c1cnc2ccc(Cc3nnc4ccc(-c5cnc6ccccc6c5)nn34)cc2c1` [Example 65, 6-(6-Quinolin-3-yl-[1,2,4]triazolo[4,3-b]pyridazin-3-ylmethyl)-quinoline]: the IC50 in experiment [1] is 2 nM; in experiment [2] it was 0.3 nM.

For the compound `FC(F)(c1ccc2ncccc2c1)c1nnc2ccc(-c3cnc4ccccc4c3)nn12` [Example 66, 6-[Difluoro-(6-quinolin-3-yl-[1,2,4]triazolo[4,3-b]pyridazin-3-yl)-methyl]-quinoline], the IC50 was found to be 5 nM in experiment [1] and 0.9 nM in experiment [2].

Consider `COc1ccc(Cn2cnc3ccc(Cc4nnc5ccc(-c6cccnc6)nn45)cc3c2=O)cc1` [Example 68, 3-(4-Methoxy-benzyl)-6-(6-pyridin-3-yl-[1,2,4]triazolo[4,3-b]pyridazin-3-ylmethyl)-3H quinazolin-4-one], for which the IC50 in experiment [1] came out at 30 nM; in experiment [2], 2 nM.
